From paper PMC6891325, “The Synthesis, Characterization, Cytotoxic Activity Assessment and Structure-Activity Relationship of 4-Aryl-6-(2,5-dichlorothiophen-3-yl)-2-methoxypyridine-3-carbonitriles” (Molecules, 2019)

Legend:
MDA-MB-231 = test: MTT cytotoxicity assay, MDA-MB-231 breast cancer cells; assay type: cell-based, human; settings: for IC50: Homo sapiens, MDA-MB-231 breast cancer cells, MTT; for SI (MDA-MB-231): selectivity index relative to normal human fibroblasts HSF1184
Method: (§1) Three different cancer cell lines; namely, DU145 derived from prostate cancer cells (American Type Culture Collection No. HTB-81), HepG2 derived from human liver cancer cells (American Type Culture Collection No. HB-8065), MBA-MB-231 derived from breast cancer cells (American Type Culture Collection No. HTB-26) and normal human fibroblasts (HSF1184) were grown and cultivated according to our previously described method. Briefly, cells were seeded in Dulbecco′s modified Eagle’s media (DMEM) supplemented with 10% heat-inactivated fetal bovine serum (FBS), 100 IU/mL penicillin, […] and 2 mM glutamine. The cells were maintained in a humidified atmosphere with 5% CO2 at 37 °C for 8 days, with subsequent media renewal. Then, cells were plated in a 96-well flat bottom plate at a concentration of 10^4 cells/well in fresh complete growth medium for 24 h and maintained in 37 °C in a 5% CO2-humidified incubator.
(§2) Cells in 96-well flat bottom plates were first serum-starved for 4 h by replacing cultured media with fresh medium (without serum). All synthesized compounds were properly dissolved in dimethyl sulfoxide (DMSO) to produce a stock concentration of 0.1 M. Cells were incubated with a range of different concentrations of the compounds we were testing (0–1000 μM) to give a final volume of 300 µL per well. In comparison, cells were incubated either alone with DMSO (negative control) or with 5-fluorouracil as a positive control. DMSO was used as a vehicle for the dissolution of the tested compounds and its final concentration in cultured media was less than 0.1%. Triplicate wells were designed for each individual dose. The compounds we synthesized were evaluated for in-vitro cytotoxicity properties via the standard 3-(4,5-dimethythiazol-2-yl)-2,5-diphenyl tetrazolium bromide (MTT) assay accordingly to our previously-reported work. The normal human fibroblast line (HSF1184) was used as a standard reference for the measurement of selectivity indexes (SIs) relative to cancer cell lines. The IC50 values and SIs were calculated accordingly.

HSF1184 = test: MTT cytotoxicity assay, normal human fibroblasts HSF1184; assay type: cell-based; settings: for IC50: Fibroblast
Method: as §1, §2

HepG2 = test: MTT cytotoxicity assay, HepG2 liver cancer cells; assay type: cell-based, human; settings: for IC50: MTT; for SI (HepG2): selectivity index relative to normal human fibroblasts HSF1184
Method: as §1, §2

DU145 = test: MTT cytotoxicity assay, DU145 prostate cancer cells; assay type: cell-based, human; settings: for IC50: Homo sapiens, DU-145, DU145 prostate cancer cells, MTT; for SI (DU145): selectivity index relative to normal human fibroblasts HSF1184
Method: as §1, §2

[1] = tested on: HepG2, DU145 and MBA-MB-231 cancer cell lines; test: MTT cytotoxicity, stated jointly for the three cancer cell lines; assay type: cell-based; settings: Homo sapiens; summary statement for HepG2, DU145 and MBA-MB-231; read-out: IC50 against all three cancer cell lines
Method: as §1, §2

[2] = Homo sapiens, HepG2, HepG2 liver cancer cells

SMILES	melting point [°C]	IC50 (MDA-MB-231) [µM]	SI (MDA-MB-231) (MDA-MB-231)	IC50 (HSF1184) [µM]	IC50 (HepG2; [2]) [µM]	SI (HepG2) (HepG2)	IC50 (DU145) [µM]	SI (DU145) (DU145)	IC50 Values HSF1184 (HSF1184)	IC50 (HepG2; HepG2 liver cancer cells) [µM]	IC50 [1] [µM]
COc1cccc(-c2cc(-c3cc(Cl)sc3Cl)nc(OC)c2C#N)c1 [5f, 6-(2,5-dichlorothiophen-3-yl)-2-methoxy-4-(3-methoxyphenyl)pyridine-3-carbonitrile]	179 to 180	43.49 ± 0.06	2.20	95.49 ± 0.29	18.3 ± 0.31	5.21	27.4 ± 0.63	3.48	–	–	–
COc1cc(-c2ccc(Cl)cc2)cc(-c2cc(Cl)sc2Cl)n1 [6c, 4-(4-chlorophenyl)-2-(2,5-dichlorothiophen-3-yl)-6-methoxypyridine]	–	–	–	112.4 ± 0.47	11.3 ± 0.22	–	21.65 ± 0.12	–	–	–	–
COc1nc(-c2cc(Cl)sc2Cl)cc(-c2ccc(Br)cc2)c1C#N [5d, 4-(4-bromophenyl)-6-(2,5-dichlorothiophen-3-yl)-2-methoxypyridine-3-carbonitrile]	214 to 215	2.59 ± 0.04	163.49	423.4 ± 0.49	1.53	261.39	3.63 ± 0.17	116.65	high	1.62 ± 0.15	1 to 5
COc1nc(-c2cc(Cl)sc2Cl)cc(-c2ccccc2)c1C#N [5a, 6-(2,5-dichlorothiophen-3-yl)-2-methoxy-4-phenylpyridine-3-carbonitrile]	–	21.2 ± 0.37	–	82.39 ± 0.04	49.6 ± 0.51	–	> 100	–	–	–	> 100
COc1nc(-c2cc(Cl)sc2Cl)cc(-c2ccc(Cl)cc2)c1C#N [5c, 4-(4-chlorophenyl)-6-(2,5-dichlorothiophen-3-yl)-2-methoxypyridine-3-carbonitrile]	195 to 196	28.3 ± 0.42	3.26	92.38 ± 0.38	> 100	–	42.36 ± 0.21	2.18	–	–	> 100
COc1nc(-c2cc(Cl)sc2Cl)cc(-c2cccc([N+](=O)[O-])c2)c1C#N [5g, 6-(2,5-dichlorothiophen-3-yl)-2-methoxy-4-(3-nitrophenyl)pyridine-3-carbonitrile]	–	1.93 ± 0.03	–	135.6 ± 0.55	2.11 ± 0.26	–	4.97 ± 0.35	–	high	–	1 to 5
COc1nc(-c2cc(Cl)sc2Cl)cc(-c2ccc([N+](=O)[O-])cc2)c1C#N [5h, 6-(2,5-dichlorothiophen-3-yl)-2-methoxy-4-(4-nitrophenyl)pyridine-3-carbonitrile]	204 to 205	2.14 ± 0.06	87.61	187.49 ± 0.14	1.53 ± 0.38	122.54	1.77 ± 0.38	105.93	high	–	1 to 5
COc1nc(-c2cc(Cl)sc2Cl)cc(-c2ccc(C)cc2)c1C#N [5b, 6-(2,5-dichlorothiophen-3-yl)-2-methoxy-4-p-tolylpyridine-3-carbonitrile]	–	> 100	–	114.5 ± 0.38	9.48 ± 0.63	–	> 100	–	–	–	> 100
O=c1[nH]cc(F)c(=O)[nH]1 [5-fluorouracil, reference compound]	–	2.21 ± 0.28	83.93	185.5 ± 0.48	1.65 ± 0.09	112.41	1.92 ± 0.24	96.60	–	–	–
COc1ccc(-c2cc(-c3cc(Cl)sc3Cl)nc(OC)c2C#N)cc1Br [5i, 4-(3-bromo-4-methoxyphenyl)-6-(2,5-dichlorothiophen-3-yl)-2-methoxypyridine-3-carbonitrile]	–	1.38 ± 0.03	–	234.5 ± 0.27	1.53	–	1.82 ± 0.21	–	high	1.72 ± 0.42	1 to 5

Second part, led by results:

melting point [°C]	SMILES	IC50 (MDA-MB-231) [µM]	SI (MDA-MB-231) (MDA-MB-231)	IC50 (HSF1184) [µM]	IC50 (HepG2; [2]) [µM]	SI (HepG2) (HepG2)	IC50 (DU145) [µM]	SI (DU145) (DU145)	IC50 Values HSF1184 (HSF1184)	IC50 (HepG2; HepG2 liver cancer cells) [µM]	IC50 [1] [µM]
135 to 136	COc1cc(-c2ccccc2OC)cc(-c2cc(Cl)sc2Cl)n1 [6e, 2-(2,5-dichlorothiophen-3-yl)-6-methoxy-4-(2-methoxyphenyl)pyridine]	–	–	–	–	–	–	–	–	–	–
182 to 183	COc1cc(-c2cccc([N+](=O)[O-])c2)cc(-c2cc(Cl)sc2Cl)n1 [6g, 2-(2,5-dichlorothiophen-3-yl)-6-methoxy-4-(3-nitrophenyl)pyridine]	18.3 ± 0.34	4.61	84.56 ± 0.4	39.43 ± 0.09	2.14	25.4 ± 0.38	3.33	–	–	–
127 to 128	COc1cc(-c2ccccc2)cc(-c2cc(Cl)sc2Cl)n1 [6a, 2-(2,5-dichlorothiophen-3-yl)-6-methoxy-4-phenylpyridine]	15.3 ± 0.41	5.82	89.34 ± 0.55	32.31 ± 0.23	2.77	53.49 ± 0.02	1.67	–	–	–
156 to 157	COc1cccc(-c2cc(OC)nc(-c3cc(Cl)sc3Cl)c2)c1 [6f, 2-(2,5-dichlorothiophen-3-yl)-6-methoxy-4-(3-methoxyphenyl)pyridine]	64.39 ± 0.28	1.63	104.8 ± 0.71	38.5 ± 0.62	2.73	18.45 ± 0.02	5.68	–	–	–
150 to 151	COc1cc(-c2ccc(C)cc2)cc(-c2cc(Cl)sc2Cl)n1 [6b, 2-(2,5-dichlorothiophen-3-yl)-6-methoxy-4-p-tolylpyridine]	52.39 ± 0.31	1.95	102.4 ± 0.3	39.5 ± 0.58	2.59	64.59 ± 0.08	1.59	–	–	–
148 to 149	COc1cc(-c2ccc(Br)cc2)cc(-c2cc(Cl)sc2Cl)n1 [6d, 4-(4-bromophenyl)-2-(2,5-dichlorothiophen-3-yl)-6-methoxypyridine]	15.4 ± 0.48	6.00	92.55 ± 0.42	64.59 ± 0.33	1.43	29.4 ± 0.88	3.14	–	–	–
